In ChEMBL document CHEMBL1201862, “PubChem BioAssay data set” (2004):
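Following 48 hours of exposure in 96-well plates, responses at five concentrations were used to interpolate endpoints linearly. GI50 is the concentration that inhibits growth by half.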 Activity calls are given as the source filed them. Cut-off read from the data, not from the text of the source: active = GI50 up to about 1.1 µM and inactive = higher.

Experiments:
Assay in all cases: NCI anticancer screen, dose series, 48 h
786-0 = test system: 786-0
A498 = test system: A498
A549 = test system: A549
ACHN = test system: ACHN
CAKI-1 = test system: CAKI-1
CCRF-CEM = test system: CCRF-CEM
COLO 205 = test system: COLO 205
DLD-1 = test system: DLD-1
DMS-114 = test system: DMS-114
DMS-273 = test system: DMS-273
EKVX = test system: EKVX
HCC 2998 = test system: HCC 2998
HCT-116 = test system: HCT-116
HCT-15 = test system: HCT-15
HL-60 = test system: HL-60
HOP-18 = test system: HOP-18
HOP-62 = test system: HOP-62
HOP-92 = test system: HOP-92
HT-29 = test system: HT-29
IGROV-1 = test system: IGROV-1
K562 = test system: K562
KM12 = test system: KM12
LOX IMVI = test system: LOX IMVI
M14 = test system: M14
M19-MEL = test system: M19-MEL
MOLT-4 = test system: MOLT-4
Malme-3M = test system: Malme-3M
NCI-H226 = test system: NCI-H226
NCI-H23 = test system: NCI-H23
NCI-H460 = test system: NCI-H460
OVCAR-3 = test system: OVCAR-3
OVCAR-4 = test system: OVCAR-4
OVCAR-5 = test system: OVCAR-5
OVCAR-8 = test system: OVCAR-8
RPMI-8226 = test system: RPMI-8226
RXF 393 = test system: RXF 393
SF-268 = test system: SF-268
SF-295 = test system: SF-295
SF-539 = test system: SF-539
SK-MEL-28 = test system: SK-MEL-28
SK-MEL-2 = test system: SK-MEL-2
SK-MEL-5 = test system: SK-MEL-5
SK-OV-3 = test system: SK-OV-3
SN12C = test system: SN12C
SNB-19 = test system: SNB-19
SNB-75 = test system: SNB-75
SNB-78 = test system: SNB-78
SW-620 = test system: SW-620
TK-10 = test system: TK-10
U-251 = test system: U-251
UACC-257 = test system: UACC-257
UACC-62 = test system: UACC-62
UO-31 = test system: UO-31

COc1ccccc1NS(=O)(=O)c1cc(C(C)(C)C)ccc1OCCOc1ccc(C(C)(C)C)cc1S(=O)(=O)Nc1ccccc1OC
GI50 (786-0): > 100 µM (inactive)
GI50 (A498): > 100 µM (inactive)
GI50 (A549): > 100 µM (inactive)
GI50 (ACHN): > 100 µM (inactive)
GI50 (CAKI-1): > 100 µM (inactive)
GI50 (CCRF-CEM): > 100 µM (inactive)
GI50 (COLO 205): > 100 µM (inactive)
GI50 (DLD-1): > 100 µM (inactive)
GI50 (DMS-114): > 100 µM (inactive)
GI50 (DMS-273): > 100 µM (inactive)
GI50 (EKVX): > 100 µM (inactive)
GI50 (HCC 2998): > 100 µM (inactive)
GI50 (HCT-116): > 100 µM (inactive)
GI50 (HCT-15): > 100 µM
GI50 (HL-60): > 100 µM (inactive)
GI50 (HOP-18): > 100 µM (inactive)
GI50 (HOP-62): > 100 µM (inactive)
GI50 (HOP-92): > 100 µM (inactive)
GI50 (HT-29): > 100 µM (inactive)
GI50 (IGROV-1): > 100 µM (inactive)
GI50 (K562): > 100 µM (inactive)
GI50 (KM12): 45.4 µM (inactive)
GI50 (LOX IMVI): > 100 µM (inactive)
GI50 (M14): > 100 µM (inactive)
GI50 (M19-MEL): > 100 µM (inactive)
GI50 (MOLT-4): > 100 µM (inactive)
GI50 (Malme-3M): > 100 µM (inactive)
GI50 (NCI-H226): > 100 µM (inactive)
GI50 (NCI-H23): > 100 µM (inactive)
GI50 (NCI-H460): > 100 µM (inactive)
GI50 (OVCAR-3): > 100 µM (inactive)
GI50 (OVCAR-4): > 100 µM (inactive)
GI50 (OVCAR-5): > 100 µM (inactive)
GI50 (OVCAR-8): > 100 µM (inactive)
GI50 (RPMI-8226): > 100 µM (inactive)
GI50 (RXF 393): > 100 µM (inactive)
GI50 (SF-268): > 100 µM (inactive)
GI50 (SF-295): > 100 µM (inactive)
GI50 (SF-539): > 100 µM (inactive)
GI50 (SK-MEL-28): > 100 µM (inactive)
GI50 (SK-MEL-2): > 100 µM (inactive)
GI50 (SK-MEL-5): > 100 µM (inactive)
GI50 (SK-OV-3): > 100 µM (inactive)
GI50 (SN12C): > 100 µM (inactive)
GI50 (SNB-19): > 100 µM (inactive)
GI50 (SNB-75): > 100 µM (inactive)
GI50 (SNB-78): > 100 µM (inactive)
GI50 (SW-620): > 100 µM (inactive)
GI50 (TK-10): > 100 µM (inactive)
GI50 (U-251): > 100 µM (inactive)
GI50 (UACC-257): > 100 µM (inactive)
GI50 (UACC-62): > 100 µM (inactive)
GI50 (UO-31): > 100 µM (inactive)
